Results from US20100168434A1, “INHIBITION OF POLYMERISATION” (priority 2005, published 2010).

What was measured:
[1] = Continuous stirred tank reactor (CSTR) styrene polymerisation inhibition; settings: CSTR 110° C., inhibitor 75 ppm; for Polymer level at steady state: nitrogen sparging
Method: The evaluation of the efficacy of a selection of nitroxide compounds of the invention was carried out using a continuous stirred tank reactor (CSTR) which mimicked the re-boiler of a styrene distillation column. […] Data gathered after this point was averaged to give the steady state polymer level. Nitrogen sparging to remove oxygen gas was carried out at a measured rate of 200 ml/minute. Apart from the inhibitors, the only variable was the inherent variation in the rate of thermal initiation of styrene polymerisation.

[2] = Solubility of inhibitors/retarders in styrene with and without 4-butoxy-TEMPO; settings: in 4-butoxy-TEMPO plus styrene, 20° C.
Method: Saturated solutions of the inhibitors/retarders phenothiazine and 4-methoxyphenol were prepared in 4-butoxy-TEMPO. These saturated solutions were then added to styrene so that the concentration of each inhibitor/retarder was above the solubility limit for that material in styrene alone.

[3] = Sealed-tube polymerisation inhibition, vinyl acetate monomer; settings: degassed with nitrogen, 160° C. for 48 hours, inhibitor 25 ppm
Method: (§1) The efficacy of various inhibitors was evaluated with respect to the monomers vinyl acetate, acrylonitrile, 2-ethylhexyl acrylate and isoprene. The efficacy of each inhibitor was determined by heating in pure monomer or a solution of monomer in a suitable solvent(s) for a set time and at a known temperature. The storage inhibitor was removed from each monomer by distillation or treatment with neutral silica. In each of the tables below, the amount of polymer generated is expressed as % w/w of the monomer.
In this case, the tubes and solution were degassed with nitrogen prior to sealing and heating at 160° C. for 48 hours.

[4] = Solubility in water and toluene (saturated solutions, amount dissolved)
[5] = Tube polymerisation inhibition, acrylonitrile monomer; settings: 120° C. for 7 days, air not removed, inhibitor 10 ppm
Method: as §1
Similarly, tubes containing acrylonitrile and various inhibitors were heated at 120° C. for 7 days. The air was not removed from these solutions prior to heating.

[6] = Tube inhibition time, 2-ethylhexyl acrylate monomer; settings: 145° C., 5 ppm inhibitor, time to appearance of insoluble polymer
Method: as §1
Similarly, tubes containing 5 ppm inhibitor in 2-ethylhexyl acrylate were heated at 145° C. and the results expressed as inhibition time (i.e. the time to appearance of insoluble polymer). Data were generated in nitrogen and in the presence of air.

[7] = Tube polymerisation inhibition, isoprene monomer; settings: 100 ppm inhibitor, 160° C. for 1 hr
Method: as §1
Similarly tubes containing 100 ppm inhibitor in a solution of Isoprene in dimethylformamide containing 1 or 3% furfural were heated at 160° C. for 1 hr. […] The results are expressed as ppm insoluble polymer.

For `C=CCOC1CC(C)(C)N([O])C(C)(C)C1` [4-allyloxy-TEMPO], the “Polymer level (at 120 mins)” value ([1]; at 120 mins (not steady state)) was 15199 (at 120 mins) ppm.

In the case of `COC1CC(C)(C)N([O])C(C)(C)C1` [4-methoxy-TEMPO], the “Polymer level at steady state” value [1] is reported as 172 ppm.

In the case of `c1ccc2c(c1)Nc1ccccc1S2` [Phenothiazine, phenothiazine], the “Soluble amount, Wt % test material (with respect to styrene)” value [2] is reported as 7.0 Wt % and the Polymer [3] is reported as 35 % w/w.

In the case of “2,2,6,6-tetramethylpiperidine-1-oxide [TEMPO]”, the “Polymer level at steady state” value [1] is reported as 213 ppm.

For “4-oxo-2,2,6,6-tetramethylpiperidine-1-oxide [4-oxo-TEMPO]”, the Solubility in toluene ([4]; saturated solution in toluene) was >80 % wt/wt and the Solubility in water ([4]; saturated solution in water) was 22.5 % wt/wt.

In the case of “4-hydroxy-2,2,6,6-tetramethylpiperidine-1-oxide [4-hydroxy-TEMPO]”, the Polymer [5] is reported as 0.18 % w/w and the “Polymer level at steady state” value [1] is reported as 180 ppm.

In the case of “4-butoxy-2,2,6,6-tetramethylpiperidine-1-oxide [4-butoxy-TEMPO]”, the Polymer [5] is reported as 0.06 % w/w, the “Inhibition time in air” value ([6]; air) is reported as 40 min and the “Inhibition time in nitrogen” value ([6]; nitrogen) is reported as 350 min. The “Polymer level at steady state” value [1] was 341 ppm, the “Insoluble polymer, 1% Furfural” value ([7]; isoprene in dimethylformamide with 1% furfural) was 2.2 ppm and the “Insoluble polymer, 3% Furfural” value ([7]; isoprene in dimethylformamide with 3% furfural) was 5.3 ppm. For the same compound, the Polymer [3] was 19 % w/w.
